# Experimental data as given in patent publication US8329703B2, “Pyrazole compounds” (XTL Biopharmaceuticals Ltd., priority 2005, dated 2012).
# Tested on: HCV Replicon (HCV IRES driven luciferase reporter) in Huh-Luc-Neo cells
# Assay: HCV Replicon Luciferase Assay
# Assay type: cell-based
# Conditions: Hepatitis C virus, 48 h, Huh-Luc-Neo cells, no unit printed in table (b301 gives IC50s in μM), read-out: Luciferase IC50
# Procedure: (§1) The identification of inhibitors of HCV replication and/or proliferation has been facilitated by the development of a cell based system to study HCV replication and assay for HCV inhibitors. Inhibition of HCV replication may be performed using the HCV Replicon Assay developed in the laboratories of Bartenschlager (Lohman et al, Science 285, 110-113, 1999) and Rice (Blight et al, Science 290, 1972-1974, 2000). The assay is performed using the Huh-Luc-Neo cell line (Lohman et al, Science 285, 110-113, 1999). Huh-Luc-Neo cells are a human hepatoma cell line (Huh-7) stably expressing a bi-cistronic subgenomic replicon containing the HCV IRES in which the […] of HCV had been deleted and replaced by a construct containing sequences coding for the firefly luciferase reporter gene, the neomycin selectable marker and the EMCV IRES to direct expression of a truncated HCV genome expressing the […] NS3, NS4A, NS4B, NS5A, and NS5B. HCV targets through which inhibitors could act to inhibit replication include the NS3 protease, the helicase/ATPase, NS5A, the NS5B-RNA dependent RNA polymerase, and the HCV IRES.
# (§2) Expression of HCV IRES driven luciferase reporter activity and HCV RNA is measured to obtain indirect and direct measures of replication of HCV RNA respectively. Inhibitors of HCV replication and/or proliferation are determined by initially identifying molecules that inhibit expression of the HCV IRES driven luciferase reporter in this HCV Replicon Luciferase Assay. Cell viability assays and control cell based luciferase assays are then run on hits identified in the HCV Replicon Luciferase Assay to eliminate cytoxic compounds and non-specific compounds which act by inhibiting the luciferase enzyme.
# (§3) Day 0, Cell Seeding and Compound Treatment: Huh-Luc-Neo Cells are seeded at 25,000/well in an opaque-walled 96 plate with Growth Medium (DMEM phenol red free+PS+2 mM glutamine; 100 μl/well). The compounds to be tested are added to the experimental wells (10 μl/well at 10× assay concentration) and the cells are then incubated (5% CO2, 37° C.) for 48 h.
# (§4) Day 2, Reagent Preparation and Luciferase Assay: The Bright-Glo Luciferase Assay Buffer (Promega) is thawed and equilibrated to room temperature prior to use. The lyophilized Bright-Glo Luciferase Assay Substrate is equilibrated to room temperature prior to use. 10 ml of Bright-Glo Luciferase Assay Buffer is transferred to 1 vial of Bright-Glo Luciferase Assay Substrate bottle and mixed by gently with a Vortex. 100 ul of Bright-Glo Luciferase Assay reagent (Bright-Glo Luciferase Assay Buffer+Bright-Glo Luciferase Assay Substrate Mixture) is added to each well. The well contents are mixed for 5 min. on an orbital shaker at room temperature to induce cell lysis and the luminescence is then measured using a luminometer. The data is analyzed and IC50s are determined using GraphPad Prism 4 software. Hits validated in the Replicon Luciferase assay have IC50s<8.0 μM and show <30% inhibition of Cell Viability at a compound concentration of 100 μM (Cell Titer Glow Assay, cell viability assay conditions identical to HCV Replicon Luciferase Assay conditions).
row,Compound,IC50 [µM]
1,Cc1ccc(O)c(-c2nn(C)cc2C#CC2=CCCCC2)c1 [VQ_23307],7.25
2,Cc1ccc(O)c(-c2nn(C)cc2C#CC(C)(C)C)c1 [VQ_23310],7.21
3,COc1ccc(C#Cc2cn(C)nc2-c2cc(Cl)ccc2O)cc1 [VQ_23317],4.37
4,Cn1cc(C#CC(C)(C)C)c(-c2cc(Cl)ccc2O)n1 [VQ_23322],2
5,CCCCCC#Cc1cn(C)nc1-c1cc(Cl)ccc1O [VQ_23324],5.51
6,COc1ccc(C#Cc2cn(C)nc2-c2cc(Cl)c(C)cc2O)cc1 [VQ_23374],3.92
7,Cn1cc(C#CCC2CCCCC2)c(-c2ccccc2O)n1 [VQ_23705],6.47
8,Cn1cc(C#Cc2ccc(N)cc2)c(-c2ccccc2O)n1 [VQ_23708],0.55
9,Cc1ccc(O)c(-c2nn(C)cc2C#Cc2ccc(N)cc2)c1 [VQ_23714],1.16
10,Cn1cc(C#Cc2ccc(N)cc2)c(-c2cc(Cl)ccc2O)n1 [VQ_23720],1.28
11,Cc1cc(O)c(-c2nn(C)cc2C#CCCCC#N)cc1Cl [VQ_24691],5.13
12,Cn1nc(-c2ccccc2O)c(C#CCCCC#N)c1-c1ccccc1 [VQ_30716],3.96
13,Cn1cc(C#CC(C)(C)C)c(-c2cc([N+](=O)[O-])ccc2OCc2c(F)cccc2F)n1 [VQ_33518],1.85
14,Cn1cc(CCC(C)(C)C)c(-c2cc(NC(=O)c3cccc(Cl)c3F)ccc2O)n1 [VQ_34072],2.87

# Tested on: HCV RNA (HCV Replicon) in Huh-Luc-Neo cells
# Assay: HCV Replicon RNA Assay (Taqman quantitative PCR)
# Assay type: cell-based
# Conditions: Hepatitis C virus, 48 h, 2 compound treatments over 48 h, no unit printed in table (b307 gives IC50s in μM)
# Procedure: as §1, §2
# as §3, with “C.).” for “C.) for 48 h.”
# Day 1, Media Change and Compound Treatment: 24 hours after the initial compound treatment the cell culture media is aspirated from the wells and fresh Growth Medium is added (DMEM phenol red free+PS+2 mM glutamine; 100 μl/well). The compounds to be tested are then added to the appropriate experimental wells (10 μl/well at 10× assay concentration) and the cells are then incubated (5% CO2, 37° C.) for an additional 24 hrs.
# Day 2, RNA Isolation and cDNA Synthesis: The cells are washed with 1× Phosphate Buffered Saline (PBS) once.
# (§5) Day 3, Quantitative PCR Based Measurement of HCV RNA (Taqman Assay): Quantitative PCR analysis to measure HCV RNA expression from cDNA synthesized on Day 2 is performed using the ABI 9700 HT Sequence Detection System (Applied Biosystems) as previously described (Lohman et al, Science 285, 110-113, 1999). The data is analyzed and IC50s are determined using GraphPad Prism 4 software. Hits validated in the Replicon RNA Assay have IC50s<8.0 μM and show <30% inhibition of Cell Viability at a compound concentration of 50 μM (Cell Titer Glow Assay, cell viability assay conditions identical to HCV Replicon RNA Assay conditions).
row,Compound,IC50 [µM]
1,Cc1ccc(O)c(-c2nn(C)cc2C#CC2=CCCCC2)c1 [VQ_23307],8.1
2,Cc1ccc(O)c(-c2nn(C)cc2C#CC(C)(C)C)c1 [VQ_23310],1.15
3,COc1ccc(C#Cc2cn(C)nc2-c2cc(Cl)ccc2O)cc1 [VQ_23317],2.7
4,Cn1cc(C#CC(C)(C)C)c(-c2cc(Cl)ccc2O)n1 [VQ_23322],2.47
5,CCCCCC#Cc1cn(C)nc1-c1cc(Cl)ccc1O [VQ_23324],0.03
6,COc1ccc(C#Cc2cn(C)nc2-c2cc(Cl)c(C)cc2O)cc1 [VQ_23374],5.7
7,Cn1cc(C#CCC2CCCCC2)c(-c2ccccc2O)n1 [VQ_23705],1.1
8,Cn1cc(C#Cc2ccc(N)cc2)c(-c2ccccc2O)n1 [VQ_23708],0.7
9,Cc1ccc(O)c(-c2nn(C)cc2C#Cc2ccc(N)cc2)c1 [VQ_23714],0.1
10,Cn1cc(C#Cc2ccc(N)cc2)c(-c2cc(Cl)ccc2O)n1 [VQ_23720],0.3
11,Cc1cc(O)c(-c2nn(C)cc2C#CCCCC#N)cc1Cl [VQ_24691],0.09
12,Cn1nc(-c2ccccc2O)c(C#CCCCC#N)c1-c1ccccc1 [VQ_30716],0.11
13,Cn1cc(C#CC(C)(C)C)c(-c2cc([N+](=O)[O-])ccc2OCc2c(F)cccc2F)n1 [VQ_33518],0.42
14,Cn1cc(CCC(C)(C)C)c(-c2cc(NC(=O)c3cccc(Cl)c3F)ccc2O)n1 [VQ_34072],1.09

# Tested on: Huh-Luc-Neo cells
# Assay: Cell Titer-Glo Cell Viability Assay
# Assay type: cell-based, human
# Conditions: inhibition of cell viability at 50 μM, 2 doses, conditions identical to HCV Replicon RNA Assay
# Procedure: as §4, §5
# Day 0, Cell Seeding and Compound Treatment: Huh-Luc-Neo Cells are seeded at 25,000/well in an opaque-walled 96 plate with Growth Medium (DMEM phenol red free+PS+2 mM glutamine; 100 ul/well).
# Day 2, Reagent Preparation and Assay: The CellTiter-Glo Buffer is thawed and equilibrated to room temperature prior to use. The lyophilized CellTiter-Glo Substrate is equilibrated to room temperature prior to use. 10 ml of CellTiter-Glo Buffer is transferred to 1 vial of CellTiter-Glo Substrate and mixed by gently with a Vortex. 100 μl of CellTiter-Glo Assay reagent (CellTiter-Glo Buffer+CellTiter-Glo Substrate Mixture) is added to each well. The well contents are mixed for 5 min. on an orbital shaker at room temperature to induce cell lysis and the luminescence is then measured using a luminometer.
row,Compound,Toxicity % Inhibition at 50 μM (2 doses) [%]
1,Cc1ccc(O)c(-c2nn(C)cc2C#CC2=CCCCC2)c1 [VQ_23307],14.8
2,Cc1ccc(O)c(-c2nn(C)cc2C#CC(C)(C)C)c1 [VQ_23310],7.1
3,COc1ccc(C#Cc2cn(C)nc2-c2cc(Cl)ccc2O)cc1 [VQ_23317],2.1
4,Cn1cc(C#CC(C)(C)C)c(-c2cc(Cl)ccc2O)n1 [VQ_23322],1.5
5,CCCCCC#Cc1cn(C)nc1-c1cc(Cl)ccc1O [VQ_23324],8.8
6,COc1ccc(C#Cc2cn(C)nc2-c2cc(Cl)c(C)cc2O)cc1 [VQ_23374],13.0
7,Cn1cc(C#CCC2CCCCC2)c(-c2ccccc2O)n1 [VQ_23705],14.7
8,Cn1cc(C#Cc2ccc(N)cc2)c(-c2ccccc2O)n1 [VQ_23708],21.8
9,Cc1ccc(O)c(-c2nn(C)cc2C#Cc2ccc(N)cc2)c1 [VQ_23714],33.4
10,Cn1cc(C#Cc2ccc(N)cc2)c(-c2cc(Cl)ccc2O)n1 [VQ_23720],32.6
11,Cc1cc(O)c(-c2nn(C)cc2C#CCCCC#N)cc1Cl [VQ_24691],28.3
12,Cn1nc(-c2ccccc2O)c(C#CCCCC#N)c1-c1ccccc1 [VQ_30716],6.8
13,Cn1cc(C#CC(C)(C)C)c(-c2cc([N+](=O)[O-])ccc2OCc2c(F)cccc2F)n1 [VQ_33518],22.8
14,Cn1cc(CCC(C)(C)C)c(-c2cc(NC(=O)c3cccc(Cl)c3F)ccc2O)n1 [VQ_34072],6.2

# Same assay, conditions: inhibition of cell viability at 100 μM, 1 dose, conditions identical to HCV Replicon Luciferase Assay (48 h)
row,Compound,Toxicity % Inhibition at 100 μM (1 dose) [%]
1,Cc1ccc(O)c(-c2nn(C)cc2C#CC2=CCCCC2)c1 [VQ_23307],44.8
2,Cc1ccc(O)c(-c2nn(C)cc2C#CC(C)(C)C)c1 [VQ_23310],33.3
3,COc1ccc(C#Cc2cn(C)nc2-c2cc(Cl)ccc2O)cc1 [VQ_23317],10.7
4,Cn1cc(C#CC(C)(C)C)c(-c2cc(Cl)ccc2O)n1 [VQ_23322],21.5
5,CCCCCC#Cc1cn(C)nc1-c1cc(Cl)ccc1O [VQ_23324],39.8
6,COc1ccc(C#Cc2cn(C)nc2-c2cc(Cl)c(C)cc2O)cc1 [VQ_23374],19.1
7,Cn1cc(C#CCC2CCCCC2)c(-c2ccccc2O)n1 [VQ_23705],26.4
8,Cn1cc(C#Cc2ccc(N)cc2)c(-c2ccccc2O)n1 [VQ_23708],63.8
9,Cc1ccc(O)c(-c2nn(C)cc2C#Cc2ccc(N)cc2)c1 [VQ_23714],31.5
10,Cn1cc(C#Cc2ccc(N)cc2)c(-c2cc(Cl)ccc2O)n1 [VQ_23720],49.2
11,Cc1cc(O)c(-c2nn(C)cc2C#CCCCC#N)cc1Cl [VQ_24691],21.1
12,Cn1nc(-c2ccccc2O)c(C#CCCCC#N)c1-c1ccccc1 [VQ_30716],13.7
13,Cn1cc(C#CC(C)(C)C)c(-c2cc([N+](=O)[O-])ccc2OCc2c(F)cccc2F)n1 [VQ_33518],40.4
14,Cn1cc(CCC(C)(C)C)c(-c2cc(NC(=O)c3cccc(Cl)c3F)ccc2O)n1 [VQ_34072],4.2
